Series [1] deals with DH5α/pFab. In words: Cell viability, SYTOX green staining flow cytometry. Type of series: cell-based, E. coli. Conditions: 0.5-2 μM triclosan, overnight culture. As to the method: DH5α/pFab were grown overnight in the absence or presence of 0.5-2 μM triclosan and subjected to SYTOX green staining flow cytometry, as previously described (Roth et al. 1997). DH5α/pUC19 was included as a control for green fluorescence of live and heat-treated dead cells. Samples were excited with a 488 nm air-cooled argon ion laser in the CyFlow SL flow cytometer (Partec GmbH). Threshold settings were enabled on forward scatter to exclude cell debris. The forward and side scatter dot plot was used to identify and gate cell populations. Fluorescence was measured at 520 nm Viable and dead cell populations were counted using the Partec FloMax software version 2.4e.
On the technique in general: In flow cytometry, cells or beads pass a laser one at a time.

The conditions of series [2]: cited from earlier work.
Series [3] has as its system DH5α. In words: Growth rate from exponential phase (OD550 over time). Type of series: cell-based, E. coli. The following applies: media containing 0-2 μM triclosan. As for the experimental part:
Growth rate was calculated from the exponential phase of growth, which was monitored as increased OD550 over time by the VERSAmax spectrophotometer (Molecular Devices). An overnight culture (16 h), standardized by OD550 to yield approximately 7×10^5 cfu/ml, was grown in 200 μl volumes per well in a 96-well plate for 24 h with agitation for 5 s every 5 min, when OD550 readings were taken. Triclosan dissolved in DMSO was added to give 0-2 μM Triclosan and 1% DMSO final concentrations.

With `Oc1cc(Cl)ccc1Oc1ccc(Cl)cc1Cl` [triclosan], the “Proportion of green fluorescent (dead) cells in DH5α/pFab culture” value in series [1] is on record as “decreased with increasing triclosan concentrations”. The Solubility in water entry in series [2] is recorded as “poor solubility in water”. Besides, the “Triclosan concentration at which growth rates of pUCFA and pFab clones were highest” value in series [3] is listed as 1 μM.

The values above are taken from patent publication US20100278847A1, “MUTUALLY SUPPRESSIVE GENE/INHIBITOR COMBINATIONS FOR NON-ANTIBIOTIC SELECTION OF RECOMBINANT STRAINS” (priority 2007, published 2010).
